ChEMBL document CHEMBL5726611, “Factor XIA inhibitors” (2019)
pKi: −log10 of the molar value.

Biological target: Coagulation factor XI (Homo sapiens, UniProt P03951)
Assay: Factor XIa Assay: The effectiveness of a compound of the present invention as an inhibitor of Coagulation Factor XIa can be determined using a relevant purified serine protease, and an appropriate synthetic substrate. The rate of hydrolysis of the chromogenic or fluorogenic substrate by the relevant serine protease was measured both in the absence and presence of compounds of the present invention. Assays were conducted at rt or at 37° C. […] A decrease in the rate of fluorescence change in the presence of inhibitor is indicative of enzyme inhibition. Such methods are known to one skilled in the art. […] Times required to achieve equilibration between enzyme and inhibitor were determined in control experiments. Initial velocities of product formation in the absence (Vo) or presence of inhibitor (Vi) were measured. Assuming competitive inhibition, and that unity is negligible compared Km/[S], [I]/e, and [I]/e (where [S], [I], and e respectively represent the total concentrations, of substrate, inhibitor and enzyme), the equilibrium constant (Ki) for dissociation of the inhibitor from the enzyme can be obtained from the dependence of Vo/Vi on [I] shown in the following equation.

Chain of Coagulation factor XI (P03951 19-387 limits assumed): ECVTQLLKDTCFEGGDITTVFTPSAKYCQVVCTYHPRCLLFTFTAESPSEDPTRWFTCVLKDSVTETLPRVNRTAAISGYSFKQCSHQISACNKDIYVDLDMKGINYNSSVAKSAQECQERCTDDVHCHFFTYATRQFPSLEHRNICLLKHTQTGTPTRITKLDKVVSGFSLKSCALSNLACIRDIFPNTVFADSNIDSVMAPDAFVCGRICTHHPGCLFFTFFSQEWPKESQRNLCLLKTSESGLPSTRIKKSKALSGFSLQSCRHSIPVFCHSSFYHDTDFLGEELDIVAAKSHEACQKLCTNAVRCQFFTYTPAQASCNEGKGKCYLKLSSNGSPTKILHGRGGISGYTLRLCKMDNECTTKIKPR
Chain of Coagulation factor XI (P03951 388-625 limits assumed): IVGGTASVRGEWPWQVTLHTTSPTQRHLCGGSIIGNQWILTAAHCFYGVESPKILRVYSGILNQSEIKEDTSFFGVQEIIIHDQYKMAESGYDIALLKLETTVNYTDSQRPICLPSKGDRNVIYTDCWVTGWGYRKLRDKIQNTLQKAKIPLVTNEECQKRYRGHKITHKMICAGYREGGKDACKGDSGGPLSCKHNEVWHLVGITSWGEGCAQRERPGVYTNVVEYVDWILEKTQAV

**Q.** COC(=O)Nc1ccc2c(c1)NC(=O)CCCCC(c1ccc(-c3cc(Cl)ccc3-c3cnn(C(F)F)c3)cn1)c1cccc-2c1 (stereo unspecified) was tested. Which pKi did it give?
**A.** 6.19

**Q.** COC(=O)Nc1ccc2c(c1)NC(=O)CCCCC(c1ccc(-c3c(-n4cc(C(F)(F)F)nn4)ccc(Cl)c3F)cn1)c1cccc-2c1 (stereo unspecified) was tested. Which pKi did it give?
**A.** 8.69

**Q.** With COC(=O)Nc1ccc2c(c1)NC(=O)CCCCC(c1ccc(-c3c(F)cccc3OC(F)F)cn1)c1cccc-2c1 (stereo unspecified) as the molecule, how does the pKi read?
**A.** < 6.06

**Q.** With COC(=O)Nc1ccc2c(c1)NC(=O)CCCCC(c1ccc(-c3cc(Cl)ccc3-n3cc(C4CC4)nn3)cn1)c1cccc-2c1 (stereo unspecified) as the molecule, how does the pKi read?
**A.** 6.86

**Q.** With COC(=O)Nc1ccc2c(c1)NC(=O)CCCCC(c1ccc(-c3cc(Cl)ccc3OC(F)F)cn1)c1cccc-2c1 (stereo unspecified) as the molecule, how does the pKi read?
**A.** 6.74

**Q.** With COC(=O)Nc1ccc2c(c1)NC(=O)CCCCC(c1ccc(-c3cc(Cl)ccc3C(F)(F)F)cn1)c1cccc-2c1 (stereo unspecified) as the molecule, how does the pKi read?
**A.** < 6.06

**Q.** How did the pKi turn out when COC(=O)Nc1ccc2c(c1)NC(=O)CCCCC(c1ccc(-c3cc(Cl)ccc3-n3cc(C(F)F)nn3)cn1)c1cccc-2c1 (stereo unspecified) was run?
**A.** 8.04

**Q.** How did the pKi turn out when COC(=O)Nc1ccc2c(c1)NC(=O)CCCCC(c1ccc(-c3cc(Cl)ccc3-n3cc(Cl)nn3)cn1)c1cccc-2c1 (stereo unspecified) was run?
**A.** 7.92

**Q.** COC(=O)Nc1ccc2c(c1)NC(=O)CCCCC(c1ccc(-c3cc(Cl)ccc3-n3cc(C(F)(F)F)nn3)cn1)c1cccc-2c1 (stereo unspecified) was tested. Which pKi did it give?
**A.** 7.74

**Q.** With COC(=O)Nc1ccc2c(c1)NC(=O)CCCCC(c1ccc(-c3cc(F)ccc3-n3cnnn3)cn1)c1cccc-2c1 (stereo unspecified) as the molecule, how does the pKi read?
**A.** 8.15

**Q.** How did the pKi turn out when COC(=O)Nc1ccc2c(c1)NC(=O)CCCCC(c1ccc(-c3cc(Cl)ccc3-n3cc(C#N)cn3)cn1)c1cccc-2c1 (stereo unspecified) was run?
**A.** 6.68

**Q.** COC(=O)Nc1ccc2c(c1)NC(=O)CCCCC(c1ccc(-c3cc(Cl)ccc3-n3cc(C(F)(F)F)cn3)cn1)c1cccc-2c1 (stereo unspecified) was tested. Which pKi did it give?
**A.** 6.15

**Q.** How did the pKi turn out when COC(=O)Nc1ccc2c(c1)NC(=O)CCCCC(c1ccc(-c3cc(Cl)ccc3C#N)cn1)c1cccc-2c1 (stereo unspecified) was run?
**A.** 7.39

**Q.** How did the pKi turn out when COC(=O)Nc1ccc2c(c1)NC(=O)CCCCC(c1ccc(-c3c(-n4cnnn4)ccc(Cl)c3F)cn1)c1cccc-2c1 (stereo unspecified) was run?
**A.** 9.62

**Q.** How did the pKi turn out when COC(=O)Nc1ccc2c(c1)NC(=O)CCCCC(c1ccc(-c3cc(Cl)ccc3OC(F)(F)F)cn1)c1cccc-2c1 (stereo unspecified) was run?
**A.** 6.40

**Q.** With COC(=O)Nc1ccc2c(c1)NC(=O)CCCCC(c1ccc(-c3cc(Cl)ccc3-c3cnco3)cn1)c1cccc-2c1 (stereo unspecified) as the molecule, how does the pKi read?
**A.** 6.59
